According to ChEMBL document CHEMBL1146594, “The leupyrrins: a structurally unique family of secondary metabolites from the myxobacterium Sorangium cellulosum” (J Nat Prod, 2003):
In brackets after ≈: the same amount, converted by molar mass. Activity calls are given as the source filed them. The calls are words filed in the database; no cut-off is given here.

What was measured:
Rhodotorula glutinis [1] = assay: Inhibition of DNA synthesis in Rhodotorula glutinis assessed as inhibition of [methyl-3H]thymine incorporation at 2.5 ug/mL after 30 mins; assay type: functional, organism-based
Aspergillus niger = assay: Antifungal activity against Aspergillus niger; assay type: functional
Mucor hiemalis = assay: Antifungal activity against Mucor hiemalis; assay type: functional
Rhodotorula glutinis [2] = assay: Inhibition of RNA synthesis in Rhodotorula glutinis assessed as inhibition of [2-14C]uracil incorporation at 2.5 ug/mL after 30 mins; assay type: functional, organism-based
Rhodotorula glutinis [3] = assay: Inhibition of protein synthesis in Rhodotorula glutinis assessed as inhibition of [U-14C]protein hydrolysate incorporation at 2.5 ug/mL after 30 mins; assay type: functional, organism-based
L929 = assay: Cytotoxicity against mouse L929 cells; assay type: cell-based
Candida albicans = assay: Antifungal activity against Candida albicans; assay type: functional
Rhodotorula glutinis [4] = assay: Antifungal activity against Rhodotorula glutinis; assay type: functional
Botrytis cinerea = assay: Antifungal activity against Botrytis cinerea; assay type: functional

- MIC (Aspergillus niger): 0.8 µg/mL (≈ 1.08 µM)
- MIC (Mucor hiemalis): 0.3 µg/mL (≈ 0.406 µM)
- MIC (Candida albicans): > 25 µg/mL
- MIC (Rhodotorula glutinis [4]): 0.25 µg/mL (≈ 0.338 µM)
- MIC (Botrytis cinerea): 0.8 µg/mL (≈ 1.08 µM)
Compound: COCCC/C(C)=C1\COC(CC(C)C)\C1=C/C1N=C2OC1COC(=O)[C@@H](CC(C)C)CC(=O)OC1C(OC(=O)C1(C)CO)/C(C)=C/Cc1ccc2[nH]1 (some centres undefined) [LEUPYRRIN A1]
- Activity (Rhodotorula glutinis [1]): Active
- Activity (Rhodotorula glutinis [2]): Active
- Activity (Rhodotorula glutinis [3]): Active
- IC50 (L929): 1 µg/mL (≈ 1.35 µM)
